We go through eight molecules from patent US20200054601A1, “NOVEL METHODS” (Ethismos Research, Inc., priority 2018, published 2020).

What is called inhibition is the percentage by which the read-out fell short of the control. Low readings indicate a response near the control, high ones a response far below the control.

Some results are limits rather than exact numbers.

The conditions of data set [1]: cited from earlier work; for Help in smoking cessation: reported, nortriptyline as the sole pharmacotherapy.
The conditions of data set [2]: cited from earlier work; for Efficacy in MDD trials: phase 2 / phase 2b trials in MDD.
Another data set deals with T1, CYP2A6 (Homo sapiens, UniProt P11509).
T1 sequence (P11509 1-494): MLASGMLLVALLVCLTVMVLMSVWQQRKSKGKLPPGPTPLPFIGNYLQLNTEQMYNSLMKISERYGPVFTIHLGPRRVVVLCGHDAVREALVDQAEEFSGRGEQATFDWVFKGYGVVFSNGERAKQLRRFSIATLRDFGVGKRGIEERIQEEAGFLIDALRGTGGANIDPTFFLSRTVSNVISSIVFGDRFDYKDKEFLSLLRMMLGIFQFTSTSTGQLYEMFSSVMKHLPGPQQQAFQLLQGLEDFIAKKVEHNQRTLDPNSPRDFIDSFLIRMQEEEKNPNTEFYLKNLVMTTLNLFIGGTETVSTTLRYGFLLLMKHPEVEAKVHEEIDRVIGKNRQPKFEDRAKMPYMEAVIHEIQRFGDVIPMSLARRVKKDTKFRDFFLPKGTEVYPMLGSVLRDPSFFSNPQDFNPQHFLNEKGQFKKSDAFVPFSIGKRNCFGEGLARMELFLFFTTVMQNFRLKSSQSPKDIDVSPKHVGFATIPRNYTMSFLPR
As to the kind of experiment: Inhibition of CYP2A6 coumarin 7-hydroxylation in human liver microsomes (direct, time- and metabolism-dependent). The following applies: both, pH 7.4. In general terms: Liver microsomes are vesicles of endoplasmic reticulum, rich in cytochrome P450 enzymes.

Data set [3] can be described thus: Qualitative solubility testing of the test article in the test system. Particulars: aqueous buffer; pH 7.4, potassium phosphate buffer, MgCl2, EDTA, human liver microsomes 0.0125 mg/mL; read-out: Soluble in the test system (visual comparison). It counts as physicochemical. The protocol:
Since stability of the test article solutions is not known, the stock solution and dilutions to working solutions are prepared fresh on the day of use.

For data set [4] the following is noted: cited from earlier work.

Protocol for CYP2A6: Known direct and metabolism-dependent inhibitors of CYP2A6 are included as positive controls.
Human liver microsomes from non-transplantable, donated livers are prepared and characterized at the testing facility as outlined by Pearce, R. et al., “Effects of Freezing, Thawing, and Storing Human Liver Microsomes on Cytochrome P450 Activity,” Archives of Biochemistry and Biophysics, 1996, 331 (2), 145-169 and Parkinson, A. et al., “The Effects of Gender, Age, Ethnicity and Liver Cirrhosis on Cytochrome P450 Enzyme Activity in Human Liver Microsomes and Inducibility in Cultured Human Hepatocytes,” Toxicology and Applied Pharmacology, 2004, 199 (3), 193-209. A mixed-gender pool of 200 individual human liver microsomal samples is used for this study (Sekisui XenoTech catalog number: H2610). The kinetic constants (S50 or Km) used to select marker substrate concentrations and incubation conditions are determined previously.
Incubation mixtures are prepared in bulk to obviate the need for directly pipetting very small volumes (i.e., 1 μL or less). The test article is dissolved in water and added directly to incubation mixtures.
A Tecan liquid handling system conducts all incubations. Duplicate aliquots of the buffer mixtures are automatically added to 96-well plates at the appropriate locations. […] The supernatant fractions are analyzed by liquid chromatography tandem mass spectrometry (LC-MS/MS). […]

For the molecule `CNCCC=C1c2ccccc2CCc2ccccc21` [nortriptyline], the “Help in smoking cessation” value in data set [1] is “increases long-term smoking cessation”.

On to `c1cnc2cc3c(cc2n1)[C@@H]1CNC[C@H]3C1` [varenicline], for which, in data set [1] (smoking cessation), the “One year abstinence rate” value is reported as 23%. The 6-month abstinence rate in data set [1] (smoking cessation, placebo 10.6%) is 27.6%.

`COC[C@@H]1[C@@H](c2ccc(Cl)c(Cl)c2)C[C@@H]2CC[C@H]1N2` [GSK-372475]: the “Efficacy in MDD trials” value in data set [2] is recorded as “failed”.

Take `CN1CCCC1c1cccnc1` (centres unmarked) [Nicotine]: the inhibition at 5 min, 300 µM at CYP2A6 turned out to be 82.5%.

Consider `Clc1ccc([C@]23CNC[C@H]2C3)cc1Cl` [Amitifadine, (1R,5S)-1-(3,4-dichlorophenyl)-3-azabicyclo[3.1.0]hexane], for which the solubility in data set [3] is no less than 200 µM. For the same molecule, the “Effect size in depression” value in data set [4] (depression) was 0.6. Also, in data set [4] (given by mouth twice daily for up to 12 weeks), the Tolerability entry was “good tolerability”.

Regarding `N[C@@H]1CC[C@@H](c2ccc(Cl)c(Cl)c2)c2ccccc21` [SEP-225289], in data set [2], the “Efficacy in MDD trials” value was “failed to differentiate versus the comparators”.

Regarding `COc1ccc(C(CN(C)C)C2(O)CCCCC2)cc1` (centres unmarked) [venlafaxine], the “Help in smoking cessation” value in data set [1] is “has not been shown to help”.

Take `CN1Cc2cc(-c3ccc(N)nn3)ccc2[C@H](c2ccc3ccccc3c2)C1` [Liafensine]: in data set [2] (two large phase 2b trials in TRD), the “Efficacy in treatment resistant depression versus active comparators” value is “no different from full-dose escitalopram (an SSRI) or duloxetine (an SNRI)”.
